Patent US12285512B2, “Composition comprising allulose as active ingredient for skin whitening” (CJ CHEILJEDANG CORPORATION, priority 2018, dated 2025)
“Also recorded” adds a separate entry of the source.

What was measured:
[1] = system: tyrosinase from mushroom; test: Quantitative LC analysis of substrate (catechol) in the tyrosinase enzyme reactant; assay type: biochemical; conditions: 50 mM sample; for Reduction rate of catechol compared to initial stage of reaction: 0 to 60 min, D.W. control 8.2%; for Reduction rate of catechol compared to initial stage of reaction / amount of catechol in the enzyme reactant: 37° C.; for tyrosinase activity (from catechol consumption, Table 2): LC quantification of catechol
Description: (§1) An enzyme solution was prepared by dissolving 0.2 mg/ml of tyrosinase from mushroom (25 KU, 2687 units/mg solid) in 50 mM sodium phosphate buffer (pH 6.5). […] As a substrate, 30 mM catechol, an enzyme solution, and 100 mM sodium phosphate buffer (pH 6.5) were mixed so that the mixing ratio of catechol:enzyme solution:sodium phosphate buffer was 5:1:4. […] As a co-sample solution, DW was added instead of the enzyme solution. After mixing, absorbance was measured at 420 nm.
A catechol standard preparation was diluted according to concentration, and then was subjected to LC analysis to obtain a standard curve of the catechol. 200 μl of each enzyme reaction solution obtained in Experimental Example 2-1 above was added into a PCR tube, and was reacted at 37° C. for 0 minutes (an enzyme reaction product in which the enzyme was inactivated by heating each enzyme reaction solution for 10 minutes), 10 minutes, 20 minutes, 30 minutes, and 60 minutes to prepare an enzyme reactant for each reaction time. The reaction was stopped using a heat block. The reaction was stopped according to the planned time and heated in a heat block at 105° C. for 10 minutes, and then put in ice and cooled for 10 minutes. The PCR tube was centrifuged twice using a centrifuge. LC analysis was carried out by a typical analytical method. The enzyme reactant was filtered with a 1-ml syringe. The filtered enzyme reactant was injected into an insert, and was subjected to LC analysis. The amount of catechol in the enzyme reactant was measured according to the standard curve, which is obtained in advance, for quantifying catechol.

[2] = system: Murine melanocytes; test: Inhibitory effect on melanogenesis: intracellular melanin (OD405) in a-MSH-treated murine melanocytes; assay type: cell-based; conditions: 50 μM a-MSH, 72 hours, FIG. 1
Description: Murine melanocytes were seeded on each 6-well plate at 1×10^4 cells/well. In a sample treatment group 24 hours after the seeding, cells were treated with allulose (CJ CheilJedang, 98% or higher purity) at a concentration of 0.01 wt %, 0.1 wt %, and 1 wt %. In a positive control group, cells were treated with arbutin at 0.02 wt %. A comparative group was treated with 1 wt % of glucose (Sigma Aldrich) or 1 wt % of fructose (Sigma Aldrich). An untreated group (control) was not treated with a sample, or a-MSH inducing melanin production. The sample treatment group, the positive control group, the comparative group, and the negative control group were treated with 50 μM of a-MSH. After 72 hours of treatment, cells were recovered and lysed with NaOH to detect intracellular melanin. The absorbances (OD405) of the untreated group, the negative control group (treated with only a-MSH), the sample treatment group (treated with a-MSH and each sample by concentration), and the positive control group (treated with a-MSH and arbutin) were measured.

[3] = system: tyrosinase from mushroom; test: Polyphenol oxidase (tyrosinase from mushroom) activity, catechol substrate, absorbance at 420 nm; assay type: biochemical; conditions: 50 mM sample, 30 mM catechol substrate, pH 6.5; FIG. 2
Description: as §1

[4] = reaction time 0 min (enzyme inactivated by heating)

Question: Which results are given for OC[C@H]1O[C@@](CO)(O[C@H]2O[C@H](CO)[C@@H](O)[C@H](O)[C@H]2O)[C@@H](O)[C@@H]1O [Comparative Example 1, sucrose]?
Answer: Reduction rate of catechol compared to initial stage of reaction [1]: 8.1%; tyrosinase activity (from catechol consumption, Table 2) [1]: not inhibited at all; amount of catechol in the enzyme reactant [1, 4]: 3296.7 ppm; amount of catechol in the enzyme reactant ([1]; reaction time 30 min): 3112.0 ppm; amount of catechol in the enzyme reactant ([1]; reaction time 60 min): 3031.0 ppm

Question: How did the “Reduction rate of catechol compared to initial stage of reaction” value [1] turn out when O=C(CO)C(O)C(O)C(O)CO (centres unmarked) [allulose] was run?
Answer: Its value is 6.1%.

Question: And the “tyrosinase activity (from catechol consumption, Table 2)” value [1]?
Answer: The value was “tyrosinase activity was inhibited”.

Question: What about the “amount of catechol in the enzyme reactant” value (from here on “amount of catechol”) [1, 4] of the same molecule?
Answer: The value was 3288.7 ppm.

Question: What about the “amount of catechol” value ([1]; reaction time 30 min) of the same molecule?
Answer: Its value is 3126.7 ppm.

Question: And the “amount of catechol” value ([1]; reaction time 60 min)?
Answer: The value was 3087.0 ppm.

Question: And the “melanogenesis (intracellular melanin, OD405)” value (“melanogenesis” for short) ([2]; 1 wt % of sample)?
Answer: The value was “inhibit melanogenesis; also recorded: melanogenesis was significantly inhibited”.

Question: What about the “melanogenesis” value ([2]; allulose-treated group (0.01, 0.1 and 1 wt %)) of the same molecule?
Answer: The value was “melanogenesis was suppressed”.

Question: What about the “tyrosinase activity (absorbance at 420 nm)” value [3] of the same molecule?
Answer: Its value is “tyrosinase activity was inhibited”.

Question: For O=C(CO)[C@@H](O)[C@H](O)[C@H](O)CO [fructose], which “Reduction rate of catechol compared to initial stage of reaction” value [1] is on record?
Answer: The value was 8.2%.

Question: What about the “tyrosinase activity (from catechol consumption, Table 2)” value [1] of the same molecule?
Answer: The value was “not inhibited at all”.

Question: And the “amount of catechol” value [1, 4]?
Answer: Its value is 3236.0 ppm.

Question: And the “amount of catechol” value ([1]; reaction time 30 min)?
Answer: The value was 3069.0 ppm.

Question: What about the “amount of catechol” value ([1]; reaction time 60 min) of the same molecule?
Answer: Its value is 2971.0 ppm.

Question: And the “melanogenesis” value ([2]; 1 wt % of sample)?
Answer: Its value is “melanogenesis was not inhibited at all”.

Question: And the “tyrosinase activity (absorbance at 420 nm)” value [3]?
Answer: The value was “not inhibited at all”.
